# Experiment: Sweetening potency: taste comparison by a team of eight experienced people with a sucrose reference solution
# Conditions: Table 3; weight basis, compared with a 2% aqueous solution of sucrose
# Method: The sweetening potency of the compounds described in the Examples was evaluated by a team of eight experienced people. This is done by comparing the taste of the compounds, in aqueous solution at variable concentrations, with a 2%, 5 % or 10 % reference solution of sucrose. The sweetening potency of the test compound compared with sucrose then corresponds to the weight ratio between the compound and sucrose for equal sweetening intensity, i.e. when the sweet tastes of the solution of the test compound and the reference solution of sucrose are considered, by a majority of people, to have the same sweetening intensity.
# Summary Table 3 below gives, by way of examples, a list of a few compounds obtained by experimental protocols similar to those described above, which those skilled in the art will easily find, together with their relative sweetening potency (SP), evaluated on a weight basis, compared with a 2% aqueous solution of sucrose. When the groups R1, R2 and R3 are different, the configuration of the asymmetric carbon to which they are bonded (carbon marked with an asterisk) is designated according to the conventional rules of stereochemistry using the R/S system: R, S or, when both configurations coexist in the same compound, RS.
row,Compound,SP (relative sweetening potency)
1,CCC(C(=O)N[C@@H](CCC(=O)O)C(=O)Nc1ccc(C#N)cc1)c1ccccc1 (some centres unmarked) [C2 H5/H/C6 H5/RS/2/CH/CH/CN],2700
2,CCCCC(CC)C(=O)N[C@@H](CCC(=O)O)C(=O)Nc1ccc(C#N)cc1 (some centres unmarked) [C2 H5/H/CH3 (CH2)3/RS/2/CH/CH/CN],5000
3,N#Cc1ccc(NC(=O)[C@H](CCC(=O)O)NC(=O)C(c2ccccc2)c2ccccc2)cc1 [C6 H5/H/C6 H5/2/CH/CH/CN],250
4,CO[C@](C(=O)N[C@@H](CCC(=O)O)C(=O)Nc1ccc(C#N)cc1)(c1ccccc1)C(F)(F)F [CF3/CH3 O/C6 H5/S/2/CH/CH/CN],600
5,N#Cc1ccc(NC(=O)[C@H](CCC(=O)O)NC(=O)C2(c3ccccc3)CCCC2)cc1 [CH2 (CH2)2 CH2/C6 H5/2/CH/CH/CN],2000
6,N#Cc1ccc(NC(=O)[C@H](CCC(=O)O)NC(=O)C2(c3ccccc3)CCCC2)cn1 [CH2 (CH2)2 CH2/C6 H5/2/N/CH/CN],3000
7,N#Cc1ccc(NC(=O)[C@H](CC(=O)O)NC(=O)C2(c3ccccc3)CC2)cc1 [CH2 CH2/C6 H5/1/CH/CH/CN],1000
8,N#Cc1ccc(NC(=O)[C@H](CCC(=O)O)NC(=O)C2(c3ccccc3)CC2)cc1 [CH2 CH2/C6 H5/2/CH/CH/CN],2500
9,CO[C@@H](C(=O)N[C@@H](CCC(=O)O)C(=O)Nc1ccc(C#N)nc1)c1ccccc1 [CH3 O/H/C6 H5/R/2/N/CH/CN],11000
10,COC(C(=O)N[C@@H](CCC(=O)O)C(=O)Nc1ccc(C#N)cc1)c1ccccc1 (some centres unmarked) [CH3 O/H/C6 H5/RS/2/CH/CH/CN],2300
11,CO[C@H](C(=O)N[C@@H](CCC(=O)O)C(=O)Nc1ccc(C#N)nc1)c1ccccc1 [CH3 O/H/C6 H5/S/2/N/CH/CN],3000
12,CCCCC(OC)C(=O)N[C@@H](CCC(=O)O)C(=O)Nc1ccc(C#N)nc1 (some centres unmarked) [CH3 O/H/CH3 (CH2)3/RS/2/N/CH/CN],2000
13,CC(C)CCC(C)(C)C(=O)N[C@@H](CCC(=O)O)C(=O)Nc1ccc(C#N)cc1 [CH3/CH3/(CH3)2 CH(CH2)2/2/CH/CH/CN],10000
14,C=CCC(C)(C)C(=O)N[C@@H](CCC(=O)O)C(=O)Nc1ccc(C#N)cc1 [CH3/CH3/CH2 CHCH2/2/CH/CH/CN],500
15,CCCCC(C)(C)C(=O)N[C@@H](CCC(=O)O)C(=O)Nc1ccc(C#N)cc1 [CH3/CH3/CH3 (CH2)3/2/CH/CH/CN],11000
16,CCCCC(C)(C)C(=O)N[C@@H](CCC(=O)O)C(=O)Nc1ccc(Cl)nc1 [CH3/CH3/CH3 (CH2)3/2/N/CH/Cl],600
17,CCCCCC(C)(C)C(=O)N[C@@H](CCC(=O)O)C(=O)Nc1ccc(C#N)nc1 [CH3/CH3/CH3 (CH2) 4/2/N/CH/CN],3000
18,"CC(OC1C(C)CCCC1C)C(=O)N[C@@H](CCC(=O)O)C(=O)Nc1ccc(C#N)cc1 (some centres unmarked) [CH3/H/(2,6-diMe)-c-C6 H9 O/RS/2/CH/CH/CN]",1000
19,CC(C)CCC(C)C(=O)N[C@@H](CCC(=O)O)C(=O)Nc1ccc(C#N)cc1 (some centres unmarked) [CH3/H/(CH3)2 CH(CH2)2/RS/2/CH/CH/CN],6000
20,C[C@@H](Oc1ccccc1)C(=O)N[C@@H](CC(=O)O)C(=O)Nc1ccc(C#N)cc1 [CH3/H/C6 H5 O/R/1/CH/CH/CN],18000

row,Compound,SP (relative sweetening potency)
1,CC(Oc1ccccc1)C(=O)N[C@@H](CCC(=O)O)C(=O)Nc1ccc(C#N)cc1 (some centres unmarked) [CH3/H/C6 H5 O/RS/2/CH/CH/CN],4000
2,CC(Oc1ccccc1)C(=O)N[C@@H](CCC(=O)O)C(=O)Nc1ccc(C#N)nc1 (some centres unmarked) [CH3/H/C6 H5 O/RS/2/N/CH/CN],13000
3,C[C@@H](C(=O)N[C@@H](CCC(=O)O)C(=O)Nc1ccc(C#N)cc1)c1ccccc1 [CH3/H/C6 H5/R/2/CH/CH/CN],1300
4,C[C@@H](C(=O)N[C@@H](CCC(=O)O)C(=O)Nc1ccc(C#N)nc1)c1ccccc1 [CH3/H/C6 H5/R/2/N/CH/CN],2500
5,C[C@H](C(=O)N[C@@H](CCC(=O)O)C(=O)Nc1ccc(C#N)cc1)c1ccccc1 [CH3/H/C6 H5/S/2/CH/CH/CN],1500
6,C[C@H](C(=O)N[C@@H](CCC(=O)O)C(=O)Nc1ccc(C#N)nc1)c1ccccc1 [CH3/H/C6 H5/S/2/N/CH/CN],4000
7,CCCO[C@H](C)C(=O)N[C@@H](CCC(=O)O)C(=O)Nc1ccc(C#N)cc1 [CH3/H/CH3 (CH2)2 O/R/2/CH/CH/CN],400
8,CCCO[C@@H](C)C(=O)N[C@@H](CCC(=O)O)C(=O)Nc1ccc(C#N)cc1 [CH3/H/CH3 (CH2)2 O/S/2/CH/CH/CN],200
9,CCC[C@@H](C)C(=O)N[C@@H](CCC(=O)O)C(=O)Nc1ccc(C#N)cc1 [CH3/H/CH3 (CH2)2/R/2/CH/CH/CN],500
10,CCC[C@H](C)C(=O)N[C@@H](CCC(=O)O)C(=O)Nc1ccc(C#N)cc1 [CH3/H/CH3 (CH2)2/S/2/CH/CH/CN],2800
11,CCCC[C@@H](C)C(=O)N[C@@H](CCC(=O)O)C(=O)Nc1ccc(C#N)cc1 [CH3/H/CH3 (CH2)3/R/2/CH/CH/CN],3000
12,CCCC[C@@H](C)C(=O)N[C@@H](CCC(=O)O)C(=O)Nc1ccc(C#N)nc1 [CH3/H/CH3 (CH2)3/R/2/N/CH/CN],2000
13,CCCCC(C)C(=O)N[C@@H](CC(=O)O)C(=O)Nc1ccc(C#N)cc1 (some centres unmarked) [CH3/H/CH3 (CH2)3/RS/1/CH/CH/CN],1500
14,CCCC[C@H](C)C(=O)N[C@@H](CCC(=O)O)C(=O)Nc1ccc(C(C)=O)cc1 [CH3/H/CH3 (CH2)3/S/2/CH/CH/COCH3],300
15,CCCC[C@H](C)C(=O)N[C@@H](CCC(=O)O)C(=O)Nc1ccc(C(N)=O)cc1 [CH3/H/CH3 (CH2)3/S/2/CH/CH/CONH2],700
16,CCCC[C@H](C)C(=O)N[C@@H](CCC(=O)O)C(=O)Nc1cnc(C#N)nc1 [CH3/H/CH3 (CH2)3/S/2/N/N/CN],10000
17,CCCCCC(C)C(=O)N[C@@H](CCC(=O)O)C(=O)Nc1ccc(C#N)cc1 (some centres unmarked) [CH3/H/CH3 (CH2)4/RS/2/CH/CH/CN],1000
18,CC(C(=O)N[C@@H](CCC(=O)O)C(=O)Nc1ccc(C#N)cc1)C1CCCCC1 (some centres unmarked) [CH3/H/c-C6 H11/RS/2/CH/CH/CN],1000
19,N#Cc1ccc(NC(=O)[C@H](CCC(=O)O)NC(=O)C(Cl)c2ccccc2)cc1 (some centres unmarked) [Cl/H/C6 H5/RS/2/CH/CH/CN],2200

# Experiment: not given
# Conditions: Table 2, EP-A-0.338.946; sucrose concentration not stated; cited from earlier work
row,Compound,SP
1,CCC(CC)CN[C@@H](CC(=O)O)C(=O)Nc1ccc(C#N)cc1 [(CH3 CH2)2 CHCH2/1/4-CN--C6 H4],200
2,CC(C)CCN[C@@H](CC(=O)O)C(=O)Nc1ccc(C#N)cc1 [(CH3)2 CHCH2 CH2/1/4-CN--C6 H4],100

# Reference: patent US5374733A, “Sweetening agent derived from L-aspartic or L-glutamic acid” (priority 1989, dated 1994)
